Key:
P815 tumor cells [1] = experiment: Suppression effect of tumor growth by immunoadjuvant combination (P815 model); format: in vivo, DBA/2 mice
Text: The following substances were used as adjuvants.
Poly I:C (TLR3 agonist) (Invivogen, SanDiego, USA)
RIBOXXOL (TLR3 agonist) (Riboxx, Radebeul, Germany)
MPL (TLR4 agonist) (Invivogen, SanDiego, USA)
Imiquimod (TLR7/8 agonist) (Invivogen, SanDiego, USA)
CpG (TLR9 agonist) (Invivogen, SanDiego, USA)
LAG-3 (Adipogen, SanDiego, USA)
P815 tumor cells were subcutaneously inoculated to DBA/2 mice in an amount of 5×10^5 cells per mouse to prepare cancer model mice. The day of inoculation was specified as Day 0. On Day 7, PIA CTL (2.5×10^5 cells per mouse) were intravenously injected. Day 8 and Day 15, an admixture of PIA peptide (50 μg per mouse) and an adjuvant in PBS was subcutaneously injected. Mice were divided into 9 groups each consisting of 4 or 5 mice and the following adjuvants were used respectively.
Group 1: PIA peptide alone (control)
(§1) Group 2: Poly IC (50 μg/mouse)
Group 3: Poly IC (50 μg/mouse)+LAG-3 (1 μg/mouse)
Group 4: No PIA peptide, Poly IC (50 μg/mouse)+LAG-3 (1 μg/mouse) alone
Group 5: RIBOXXOL (100 μg/mouse)
Group 6: RIBOXXOL (100 μg/mouse)+LAG-3 (1 μg/mouse)
Group 7: MPL (10 μg/mouse)+LAG-3 (1 μg/mouse)
Group 8: Imiquimod (50 μg/mouse)+LAG-3 (1 μg/mouse)
Group 9: CpG (10 μg/mouse)+LAG-3 (1 μg/mouse)

B16-F10 melanoma cells = experiment: Tumor growth inhibitory effect by combination of immuno-adjuvants, B16-F10 melanoma inoculation model mice; format: in vivo, C57BL/6 mice
Experimental: To C57BL/6 mice, B16-F10 melanoma cells (1×10^5 cells per mouse) were subcutaneously inoculated to prepare cancer model mice.
The day of inoculation was specified as Day 0. On Day 5 and Day 12, twice in total, an admixture of gp100 peptide (50 μg per mouse) and an adjuvant in PBS was subcutaneously injected. The following adjuvants were used in respective mice groups.
Group 1: IFA (50 μL/mouse)
as §1
Group 3: LAG-3 (1 μg/mouse)
Group 4: LAG-3 (1 μg/mouse)+Poly IC (50 μg/mouse)

P815 tumor cells [2] = experiment: Cancer vaccine: comparison of adjuvants with P1A peptide in P815-grafted DBA/2 mice; format: in vivo; conditions: groups of 5 mice; P1A CTL i.v. Day 8; P1A peptide 50 μg + adjuvant s.c. Day 9 and Day 16
Text: In accordance with the protocol shown in FIG. 1, the effects of adjuvants in cancer vaccines using a cancer-antigen derived peptide were compared.
As cancer model mice, DBA/2 mice, to which P815 cells (DBA/2mouse-derived mouse mastocytoma) were grafted, were put in use.
As a cancer-antigen derived peptide, a peptide (hereinafter referred to as “PIA peptide”) consisting of a partial sequence of PIA protein was used, which is a tumor antigen of P815 tumor and known to be restrictively presented by an MHC H-2Ld. The amino acid sequence of P1A peptide are represented by LPYLGWLVF (SEQ. ID No: 1).
As P1A CTL, a T cell expressing a T cell receptor and recognizing P1A peptide was used. […] Based on the positive ratio, the number of P1A-CTL cells was determined and administered.
As the adjuvants, the following substances were used. • Whole pertussis bacterial cell (PT) (BioFarma, Bandung, Indonesia) • Poly I:C (TLR3 agonist) (Invivogen, SanDiego, USA) • CpG (TLR9 agonist) (Invivogen, SanDiego, USA) • IFA (incomplete Freund's adjuvant) (Seppic, Paris, France) • LAG-3 (Adipogen, SanDiego, USA) Method
P815 tumor cells were subcutaneously inoculated to DBA/2 mice in an amount of 5×10^5 cells per mouse. The day of inoculation was specified as Day 0. On Day 8, P1A CTL (2.5×10^5 cells per mouse) were intravenously injected. […]

Substance | Day up to which all mice died (P815 tumor cells [1]; 5 out of 5 mice, PIA peptide without adjuvant) | effect of extending survival time (in words) (B16-F10 melanoma cells; Poly IC and LAG-3 alone compared to IFA group, combination compared to IFA, Poly IC and LAG-3 groups) | Day on which five mice all died (B16-F10 melanoma cells; gp100 peptide 50 μg + adjuvant s.c. Day 5 and Day 12) | number of mice survived until Day 70 without increasing tumor size (P815 tumor cells [2]) | mice survived (out of 5) (P815 tumor cells [1]; with PIA peptide 50 μg s.c. Day 8 and Day 15, time point apparently Day 40)
LPYLGWLVF (listed as Mus musculus) [PIA peptide alone] | ≤ 40 days |  |  |  | 
Polyinosinic:polycytidylic acid [Poly IC] |  | a significant effect of extending survival time was not observed | 35 days | 1 | Four
